Data taken from patent US8097422B2, “Kir channel modulators” (Salk Institute for Biological Studies, priority 2007, dated 2012).

Key:
[1] = biological target: T1, GIRK4 S143T mutant channel (GIRK4*) (Rattus norvegicus, UniProt P48548, S143T); test: whole-cell patch clamp, GIRK4 S143T (GIRK4*) channel; format: cell-based; conditions: for modulation of GIRK4 S143T mutant channel, mean percentage change from basal: n=7; for activation of GIRK4*, mean percentage change from basal current: wild type GIRK4*, n=8
T1 construct: expressed in transfected cells; host or cells: HEK293 / HEK293T
T1 sequence (P48548 1-419 S143T): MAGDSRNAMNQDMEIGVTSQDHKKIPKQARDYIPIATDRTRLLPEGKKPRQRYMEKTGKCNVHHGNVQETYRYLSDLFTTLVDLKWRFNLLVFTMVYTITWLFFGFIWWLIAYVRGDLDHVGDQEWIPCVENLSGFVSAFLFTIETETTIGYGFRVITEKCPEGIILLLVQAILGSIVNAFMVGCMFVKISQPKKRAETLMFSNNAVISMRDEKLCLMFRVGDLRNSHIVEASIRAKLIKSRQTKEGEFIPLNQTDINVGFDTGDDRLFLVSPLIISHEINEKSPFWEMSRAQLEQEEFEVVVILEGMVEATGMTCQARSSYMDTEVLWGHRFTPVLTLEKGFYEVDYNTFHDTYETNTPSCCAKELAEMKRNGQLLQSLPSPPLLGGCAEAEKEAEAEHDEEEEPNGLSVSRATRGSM
Description: Point mutations were introduced by Quickchange site directed mutagenesis kit (Stratagene). The GIRK2 PIP mutant was generated by overlap-PCR method. […] Mutations were confirmed by automated DNA sequencing methods. […] Cells were plated in a 12 well dish, and were transiently transfected using Lipofectamine 2000 (Invitrogen). After 12-24 hrs, cells were re-plated to 12-mm glass coverslips coated with poly-D-[…] microgram/ml). […] The cells were co-transfected with 0.04 micrograms of eYFP cDNA to identify transfected cells. 0.8 micrograms of Muscarinic Receptor 2 (M2R) was also co-transfected for experiments with Carbachol. […] Whole-cell patch clamp recordings were performed 24-72 hrs after transfection. […] Alcohols, 5 μM Carbachol, and 1 mM BaCl2 (diluted in 20K solution) were applied from outside the cell with the rapid perfusion system (Warner Instruments). […] Current-voltage relationships also were obtained from the ramp protocol. This protocol was used to measure the inwardly rectifying currents at -100 mV and to ensure stability of recording by monitoring a reversal potential and inward rectification. […] Alcohol and Carbachol modulated currents were measured by averaging two consecutive current readings upon reaching steady state, and subtracting the averaged basal current before and after the application of modulator.

IRK1 channel = biological target: T2, IRK1 channel (Mus musculus, UniProt P35561); test: whole-cell patch clamp, HEK293T cells transfected with IRK1; format: cell-based; conditions: n=5; for inhibition of IRK1 channel, percentage inhibition: equimolar 50 mM alcohol series
T2 construct: expressed in transfected cells; host or cells: HEK293T
T2 sequence (P35561 1-428): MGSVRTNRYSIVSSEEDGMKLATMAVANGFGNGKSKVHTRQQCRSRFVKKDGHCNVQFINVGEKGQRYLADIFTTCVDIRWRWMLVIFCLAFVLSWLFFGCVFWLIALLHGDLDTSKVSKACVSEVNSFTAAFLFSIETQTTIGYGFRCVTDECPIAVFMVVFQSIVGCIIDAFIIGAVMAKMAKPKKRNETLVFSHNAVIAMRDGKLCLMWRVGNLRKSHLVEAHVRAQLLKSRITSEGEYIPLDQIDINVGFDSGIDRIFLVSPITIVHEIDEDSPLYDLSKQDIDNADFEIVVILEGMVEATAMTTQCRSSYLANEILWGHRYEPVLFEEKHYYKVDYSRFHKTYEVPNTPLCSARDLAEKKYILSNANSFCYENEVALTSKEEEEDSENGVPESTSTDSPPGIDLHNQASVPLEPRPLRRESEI
Description: Using whole-cell patch clamp, technique in HEK293T cells transfected with IRK1 or GIRK2 channels, it was determined that MPD does in fact modulate these channels. Addition of 100 mM MPD inhibits the inward currents of the IRK1 channel, without changing the reversal potential or altering inward rectification (FIG. 1e).
GIRK2c, GIRK4, IRK1, M2R and m-Phosducin were subcloned into PCDNA3.1 vector (Invitrogen). Point mutations were introduced by Quickchange site directed mutagenesis kit (Stratagene). The GIRK2 PIP mutant was generated by overlap-PCR method. Briefly, amino acid 216-NLRKSHL-222 (SEQ ID NO: 25) of IRK1 was swapped into 228-DLRNSHL-234 (SEQ ID NO: 26) of GIRK2, in the region designated βC-βD loop in the crystal structure. Mutations were confirmed by automated DNA sequencing methods.
HEK 293T cells were cultured in DMEM supplemented with 10% FBS, and 1× Glutamax (Invitrogen) in a humidified 37° incubator with 5% CO2. Cells were plated in a 12 well dish, and were transiently transfected using Lipofectamine 2000 (Invitrogen). After 12-24 hrs, cells were re-plated to 12-mm glass coverslips coated with poly-D-Lysine (20 microgram/ml).
HEK293 cells were transfected with 0.2 micrograms of channel cDNA. The cells were co-transfected with 0.04 micrograms of eYFP cDNA to identify transfected cells. 0.8 micrograms of Muscarinic Receptor 2 (M2R) was also co-transfected for experiments with Carbachol. For experiments with and without m-phosducin, 0.8 ug of m-phosducin cDNA was used versus a PCDNA3.1 vector control.
Whole-cell patch clamp recordings were performed 24-72 hrs after transfection. Borosilicate glass electrodes (Warner Instruments) of […] filled with intracellular solution (130 mM KCl, 20 mM NaCl, 5 mM EGTA, 2.56 mM K2ATP, 5.46 mM MgCl2, 0.30 mM Li2GTP, and 10 mM HEPES (pH 7.4)) was used. Membrane currents were recorded using Axopatch 200B (Axon Instruments) amplifier, adjusted electronically for cell capacitance and series resistance (80-100%), filtered at 1 kHz with an 8-pole Bessel filter and digitized at 5 kHz with a Digidata 1200 interface (Axon Instruments). The cells rapidly perfused with a 20 mM K^+ (20K) solution (20 mM KCl, 140 mM NaCl, 0.5 mM CaCl2, 2 mM MgCl2 and 10 mM HEPES (pH7.4)). Alcohols, 5 μM Carbachol, and 1 mM BaCl2 (diluted in 20K solution) were applied from outside the cell with the rapid perfusion system (Warner Instruments). Whole-cell currents were measured using a ramp protocol that holds at −40 mV, steps to −100 mV then ramps to +50 mV and repeats every 2 seconds. Current-voltage relationships also were obtained from the ramp protocol. This protocol was used to measure the inwardly rectifying currents at −100 mV and to ensure stability of recording by monitoring a reversal potential and inward rectification. Current density was measured by dividing inward current at −100 mV by membrane capacitance that was compensated during the recording. Basal currents were measured as the Ba^++ blocked inward currents at −100 mV. Alcohol and Carbachol modulated currents were measured by averaging two consecutive current readings upon reaching steady state, and subtracting the averaged basal current before and after the application of modulator. Pooled data are presented as Mean±SEM and evaluated for statistical significance by a 1-way ANOVA, followed by Bonferroni's multiple comparison post-hoc test.

Row | modulation of GIRK4 S143T mutant channel, mean percentage change from basal [1] | activation of GIRK4*, mean percentage change from basal current [1] | inhibition at 100000 µM (IRK1 channel; HEK-293T, 100 mM MPD, -100 mV, read-out: percent change of basal current, IRK) | inhibition of IRK1 channel, percentage inhibition (IRK1 channel) | Carb activation of GIRK4* wild type, % of basal current ([1]; 5 μM Carbachol, M2R co-transfected) | Molecule
1 | 87±12% | 113±14% | 32.5 ± 3.9% | −25±3% | – | CC(O)CC(C)(C)O (racemic) [MPD, 2-methyl-2,4-pentanediol]
2 | 35±4% | 36±3% | – | −5±1% | – | CCO [EtOH, ethanol]
3 | 51±6% | 64±7% | – | −12±2% | – | 1-propanol [1-PrOH]
4 | 23±3% | – | – | −20±3% | – | 1-butanol [1-BuOH]
5 | – | – | – | – | 231±38% | C[N+](C)(C)CCOC(N)=O [Carbachol]
